Source: ChEMBL document CHEMBL4382217 (Bioorg Med Chem, 2018)
Each block holds one compound with its values, some of them ahead of it.

What was measured:
NCI-H1975 [1] = assay: Antiproliferative activity against human NCI-H1975 cells harboring EGFR T790M/L858R double mutant after 72 hrs by MTS assay; assay type: functional, cell-based; settings: Homo sapiens, NCI-H1975, 72 h
[2] = (§1) Antiproliferative activity against human A431 cells harboring WT EGFR after 72 hrs by MTS assay; assay type: cell-based, A-431; settings: human, A431 cells harboring WT EGFR
[3] = Selectivity index, ratio of GI50 for human A431 cells harboring WT EGFR to GI50 for human NCI-H1975 cells harboring EGFR T790M/L858R double mutant
Calu-6 = assay: Antiproliferative activity against human Calu6 cells harboring WT EGFR after 72 hrs by MTS assay; assay type: cell-based; settings: Calu-6, 72 h
Calu-3 = assay: Antiproliferative activity against human Calu3 cells harboring WT EGFR after 72 hrs by MTS assay; assay type: cell-based; settings: Calu-3, 72 h
Homo sapiens = organism: Homo sapiens; assay: Selectivity index, ratio of IC50 for recombinant human N-terminal GST-tagged EGFR (696-end residues) expressed in baculovirus expression system to IC50 for recombinant human N-terminal GST-tagged EGFR T790M/L858R double mutant (696-end residues)
A-431 = assay: as §1; assay type: cell-based; settings: Homo sapiens, A-431, 72 h
PC-9 [4] = assay: Antiproliferative activity against human PC9 cells harboring EGFR mutant after 72 hrs by MTS assay; assay type: functional, cell-based; settings: PC-9, 72 h
[5] = Drug level in human liver microsomes treated with N-(2-((2-(Dimethylamino)ethyl)(methyl)amino)-4-methoxy-5-((4-(1-methyl-1H-pyrrolo[3,2-b]pyridin-3-yl)pyrimidin-2-yl)amino)phenyl)acrylamide by LC-MS/MS analysis; assay type: ADME, Microsome
HCC827 [6] = assay: Antiproliferative activity against human HCC827 cells harboring EGFR mutant after 72 hrs by MTS assay; assay type: functional, cell-based; settings: HCC827, 72 h
[7] = target: Epidermal growth factor receptor (Homo sapiens, UniProt P00533, L858R); assay: Inhibition of recombinant human GST-tagged EGFR L858R mutant expressed in baculovirus expression system by fluorescence assay
Sequence of Epidermal growth factor receptor (Homo sapiens, UniProt P00533, L858R) (P00533 25-1210 L858R limits assumed): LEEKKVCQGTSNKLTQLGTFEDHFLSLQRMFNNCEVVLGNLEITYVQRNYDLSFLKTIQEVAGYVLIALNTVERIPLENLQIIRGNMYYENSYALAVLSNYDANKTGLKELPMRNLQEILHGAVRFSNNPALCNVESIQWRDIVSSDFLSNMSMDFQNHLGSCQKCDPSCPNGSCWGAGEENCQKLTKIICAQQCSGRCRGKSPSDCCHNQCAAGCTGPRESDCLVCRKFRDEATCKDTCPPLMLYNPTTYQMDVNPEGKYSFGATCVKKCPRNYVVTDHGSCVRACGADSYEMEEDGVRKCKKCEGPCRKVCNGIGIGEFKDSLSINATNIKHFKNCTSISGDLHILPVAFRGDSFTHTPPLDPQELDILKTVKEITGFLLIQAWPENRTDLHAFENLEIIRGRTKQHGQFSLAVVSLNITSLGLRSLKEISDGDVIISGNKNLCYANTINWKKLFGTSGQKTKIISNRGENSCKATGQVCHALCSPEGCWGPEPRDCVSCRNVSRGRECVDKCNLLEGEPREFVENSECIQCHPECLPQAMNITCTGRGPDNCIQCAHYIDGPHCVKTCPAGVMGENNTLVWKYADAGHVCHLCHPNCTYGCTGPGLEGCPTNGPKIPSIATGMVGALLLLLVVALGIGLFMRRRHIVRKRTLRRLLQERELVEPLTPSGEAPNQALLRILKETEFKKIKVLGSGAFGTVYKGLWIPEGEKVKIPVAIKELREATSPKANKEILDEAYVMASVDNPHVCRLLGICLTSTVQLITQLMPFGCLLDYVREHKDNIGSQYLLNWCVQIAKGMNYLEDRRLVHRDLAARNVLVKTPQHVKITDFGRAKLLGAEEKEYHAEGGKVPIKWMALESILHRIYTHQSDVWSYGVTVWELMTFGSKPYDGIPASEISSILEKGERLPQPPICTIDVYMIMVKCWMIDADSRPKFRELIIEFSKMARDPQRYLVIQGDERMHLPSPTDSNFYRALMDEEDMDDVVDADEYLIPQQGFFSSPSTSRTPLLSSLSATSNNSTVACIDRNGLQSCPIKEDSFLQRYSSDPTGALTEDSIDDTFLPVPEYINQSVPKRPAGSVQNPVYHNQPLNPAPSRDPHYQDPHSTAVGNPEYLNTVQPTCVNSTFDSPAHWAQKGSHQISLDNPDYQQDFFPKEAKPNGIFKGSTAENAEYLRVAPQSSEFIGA

[8] = target: T1, Epidermal growth factor receptor (Homo sapiens, UniProt P00533); assay: Inhibition of recombinant human N-terminal GST-tagged EGFR (696-end residues) expressed in baculovirus expression system using Srctide as substrate by fluorescence assay
T1 sequence (P00533 whole entry): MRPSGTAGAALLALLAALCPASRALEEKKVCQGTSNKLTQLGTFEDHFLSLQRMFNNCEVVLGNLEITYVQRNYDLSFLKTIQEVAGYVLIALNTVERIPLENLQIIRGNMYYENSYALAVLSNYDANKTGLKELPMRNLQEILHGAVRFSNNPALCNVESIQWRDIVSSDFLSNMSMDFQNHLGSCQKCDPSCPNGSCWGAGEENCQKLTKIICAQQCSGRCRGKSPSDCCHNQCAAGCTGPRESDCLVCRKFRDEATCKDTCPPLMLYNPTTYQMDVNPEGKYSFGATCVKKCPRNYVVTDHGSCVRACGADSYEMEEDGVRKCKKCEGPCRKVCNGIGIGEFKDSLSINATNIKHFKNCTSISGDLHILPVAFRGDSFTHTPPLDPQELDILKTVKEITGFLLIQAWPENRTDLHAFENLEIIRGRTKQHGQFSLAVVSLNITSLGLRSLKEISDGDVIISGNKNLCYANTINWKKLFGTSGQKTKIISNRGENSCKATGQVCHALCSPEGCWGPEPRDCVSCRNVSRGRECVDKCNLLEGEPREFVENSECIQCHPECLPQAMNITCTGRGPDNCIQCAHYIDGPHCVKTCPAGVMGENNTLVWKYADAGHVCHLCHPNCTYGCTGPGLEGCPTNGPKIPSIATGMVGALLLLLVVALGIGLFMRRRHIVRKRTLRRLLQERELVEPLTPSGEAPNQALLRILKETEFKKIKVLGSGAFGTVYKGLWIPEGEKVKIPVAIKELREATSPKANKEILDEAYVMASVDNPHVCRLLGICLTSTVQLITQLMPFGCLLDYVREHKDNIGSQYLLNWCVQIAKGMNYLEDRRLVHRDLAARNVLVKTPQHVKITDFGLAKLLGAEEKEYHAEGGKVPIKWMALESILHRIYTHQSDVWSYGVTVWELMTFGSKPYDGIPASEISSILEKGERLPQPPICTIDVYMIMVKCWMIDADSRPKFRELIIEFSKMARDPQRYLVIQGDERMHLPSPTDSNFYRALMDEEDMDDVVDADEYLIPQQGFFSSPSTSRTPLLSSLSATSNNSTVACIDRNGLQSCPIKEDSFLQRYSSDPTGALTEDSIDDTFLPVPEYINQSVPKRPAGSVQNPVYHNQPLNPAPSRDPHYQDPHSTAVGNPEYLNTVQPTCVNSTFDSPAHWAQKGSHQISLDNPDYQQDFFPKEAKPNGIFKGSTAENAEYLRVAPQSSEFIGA

[9] = target: Epidermal growth factor receptor (Homo sapiens, UniProt P00533, L858R/T790M); assay: Inhibition of recombinant human N-terminal GST-tagged EGFR T790M/L858R double mutant (696-end residues) by fluorescence assay
Sequence of Epidermal growth factor receptor (Homo sapiens, UniProt P00533, L858R/T790M) (P00533 25-1210 T790M/L858R limits assumed): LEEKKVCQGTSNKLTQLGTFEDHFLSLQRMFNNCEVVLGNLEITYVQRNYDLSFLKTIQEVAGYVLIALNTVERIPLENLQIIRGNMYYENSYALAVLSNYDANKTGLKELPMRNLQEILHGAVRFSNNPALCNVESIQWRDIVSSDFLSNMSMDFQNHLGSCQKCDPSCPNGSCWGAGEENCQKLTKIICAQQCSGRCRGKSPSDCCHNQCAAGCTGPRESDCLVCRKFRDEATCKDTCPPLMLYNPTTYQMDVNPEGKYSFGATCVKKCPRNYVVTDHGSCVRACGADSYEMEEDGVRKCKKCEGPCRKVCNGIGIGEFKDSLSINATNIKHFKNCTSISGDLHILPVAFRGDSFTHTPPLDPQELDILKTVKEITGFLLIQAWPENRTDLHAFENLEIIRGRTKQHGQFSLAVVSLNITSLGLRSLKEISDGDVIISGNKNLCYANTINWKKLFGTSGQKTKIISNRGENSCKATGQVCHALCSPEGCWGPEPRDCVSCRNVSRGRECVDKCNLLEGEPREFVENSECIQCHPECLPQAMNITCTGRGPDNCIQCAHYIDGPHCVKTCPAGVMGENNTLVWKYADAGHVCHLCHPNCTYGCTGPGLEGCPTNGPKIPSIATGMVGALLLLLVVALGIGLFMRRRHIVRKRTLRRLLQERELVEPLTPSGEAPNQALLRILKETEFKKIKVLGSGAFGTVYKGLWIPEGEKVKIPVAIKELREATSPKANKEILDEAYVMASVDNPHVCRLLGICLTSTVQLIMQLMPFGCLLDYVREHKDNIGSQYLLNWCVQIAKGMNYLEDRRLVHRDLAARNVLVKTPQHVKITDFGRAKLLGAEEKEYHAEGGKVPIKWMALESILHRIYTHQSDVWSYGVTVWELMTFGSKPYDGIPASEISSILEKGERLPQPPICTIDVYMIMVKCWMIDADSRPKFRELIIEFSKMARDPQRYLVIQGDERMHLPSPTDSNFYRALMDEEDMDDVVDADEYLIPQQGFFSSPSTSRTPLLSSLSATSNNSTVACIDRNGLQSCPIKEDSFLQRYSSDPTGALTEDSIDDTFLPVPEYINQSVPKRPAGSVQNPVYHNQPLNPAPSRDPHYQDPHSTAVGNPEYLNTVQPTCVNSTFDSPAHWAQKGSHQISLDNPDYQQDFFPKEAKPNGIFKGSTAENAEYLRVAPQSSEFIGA

[10] = target: T1, Epidermal growth factor receptor; assay: Inhibition of WT EGFR phosphorylation at Y1068 residue in human A431 cells up to 10 uM after 4 hrs by Western blot analysis; assay type: cell-based
[11] = Selectivity index, ratio of IC50 for human A431 cells harboring WT EGFR to IC50 for human PC9 cells harboring EGFR mutant
NCI-H1975 [12] = assay: Antitumor activity against human NCI-H1975 cells harboring EGFR T790M/L858R double mutant xenografted in castrated nude mouse assessed as tumor growth inhibition at 20 mg/kg, po daily for 14 consecutive days measured on day 15 relative to control; assay type: functional; settings: Mus musculus, NCI-H1975, po, 360 h; read-out: TGI
PC-9 [13] = assay: Antitumor activity against human PC9 cells harboring EGFR exon-19 del mutant xenografted in castrated nude mouse assessed as tumor growth inhibition administered orally daily for 14 consecutive days measured on day 15; assay type: functional, cell-based
PC-9 [14] = assay: Antitumor activity against human PC9 cells harboring EGFR exon-19 del mutant xenografted in castrated nude mouse assessed as tumor growth inhibition at 10 mg/kg, po daily for 14 consecutive days measured on day 15 relative to control; assay type: functional; settings: Mus musculus, PC-9, po, 360 h; read-out: TGI
NCI-H1975 [15] = assay: Antitumor activity against human NCI-H1975 cells harboring EGFR T790M/L858R double mutant xenografted in castrated nude mouse assessed as tumor growth inhibition administered orally daily for 14 consecutive days measured on day 15; assay type: functional, cell-based
HCC827 [16] = assay: Antitumor activity against human HCC827 cells harboring EGFR exon-19 del mutant xenografted in castrated nude mouse assessed as tumor growth inhibition at 1 mg/kg, po daily for 14 consecutive days measured on day 15 relative to control; assay type: functional; settings: 360 h, read-out: TGI
PC-9 [17] = assay: Antitumor activity against human PC9 cells harboring EGFR exon-19 del mutant xenografted in castrated nude mouse assessed as tumor growth inhibition at 20 mg/kg, po daily for 14 consecutive days measured on day 15 relative to control; assay type: functional; settings: PC-9, po, 360 h, read-out: TGI
[18] = Selectivity index, ratio of IC50 for human Calu3 cells harboring WT EGFR to IC50 for human NCI-H1975 cells harboring EGFR T790M/L858R double mutant
[19] = target: T1, Epidermal growth factor receptor; assay: Inhibition of WT EGFR in human A431 cells assessed as reduction in ERK phosphorylation at T202/Y204 residues up to 10 uM after 4 hrs by Western blot analysis; assay type: cell-based
NCI-H1975 [20] = assay: Antitumor activity against human NCI-H1975 cells harboring EGFR T790M/L858R double mutant xenografted in castrated nude mouse assessed as tumor growth inhibition at 5 mg/kg, po daily for 14 consecutive days measured on day 15 relative to control; assay type: functional; settings: 360 h, read-out: TGI
HCC827 [21] = assay: Antitumor activity against human HCC827 cells harboring EGFR exon-19 del mutant xenografted in castrated nude mouse assessed as tumor growth inhibition at 10 mg/kg, po daily for 14 consecutive days measured on day 15 relative to control; assay type: functional; settings: Mus musculus, HCC827, po, 360 h; read-out: TGI
NCI-H1975 [22] = assay: Antitumor activity against human NCI-H1975 cells harboring EGFR T790M/L858R double mutant xenografted in castrated nude mouse assessed as tumor growth inhibition at 10 mg/kg, po daily for 14 consecutive days measured on day 15 relative to control; assay type: functional; settings: 360 h, read-out: TGI
[23] = Selectivity index, ratio of IC50 for human A431 cells harboring WT EGFR to IC50 for human HCC827 cells harboring EGFR mutant
HCC827 [24] = assay: Antitumor activity against human HCC827 cells harboring EGFR exon-19 del mutant xenografted in castrated nude mouse assessed as tumor growth inhibition at 0.3 mg/kg, po daily for 14 consecutive days measured on day 15 relative to control; assay type: functional; settings: 360 h, read-out: TGI
[25] = Selectivity index, ratio of IC50 for human A431 cells harboring WT EGFR to IC50 for human NCI-H1975 cells harboring EGFR T790M/L858R double mutant
PC-9 [26] = assay: Antitumor activity against human PC9 cells harboring EGFR exon-19 del mutant xenografted in castrated nude mouse assessed as tumor growth inhibition at 2 mg/kg, po daily for 14 consecutive days measured on day 15 relative to control; assay type: functional; settings: PC-9, po, 360 h, read-out: TGI
PC-9 [27] = assay: Antitumor activity against human PC9 cells harboring EGFR exon-19 del mutant xenografted in castrated nude mouse assessed as tumor growth inhibition at 5 mg/kg, po daily for 14 consecutive days measured on day 15 relative to control; assay type: functional; settings: PC-9, po, 360 h, read-out: TGI
[28] = Toxicity in castrated nude mouse xenografted with human HCC827 cells assessed as body weight loss at 0.3 to 10 mg/kg, po daily for 14 consecutive days; assay type: organism-based; settings: in vivo
HCC827 [29] = assay: Antitumor activity against human HCC827 cells harboring EGFR exon-19 del mutant xenografted in castrated nude mouse assessed as tumor growth inhibition at 3 mg/kg, po daily for 14 consecutive days measured on day 15 relative to control; assay type: functional; settings: 360 h, read-out: TGI
[30] = Toxicity in castrated nude mouse xenografted with human PC9 cells assessed as body weight loss at 2 to 20 mg/kg, po daily for 14 consecutive days; assay type: organism-based; settings: in vivo
[31] = Toxicity in castrated nude mouse xenografted with human NCI-H1975 cells assessed as body weight loss at 5 to 40 mg/kg, po daily for 14 consecutive days; assay type: organism-based; settings: in vivo
NCI-H1975 [32] = assay: Antitumor activity against human NCI-H1975 cells harboring EGFR T790M/L858R double mutant xenografted in castrated nude mouse assessed as tumor growth inhibition at 40 mg/kg, po daily for 14 consecutive days measured on day 15 relative to control; assay type: functional; settings: 360 h, read-out: TGI
[33] = Selectivity index, ratio of IC50 for human Calu3 cells harboring WT EGFR to IC50 for human PC9 cells harboring EGFR mutant
HCC827 [34] = assay: Antitumor activity against human HCC827 cells harboring EGFR exon-19 del mutant xenografted in castrated nude mouse assessed as tumor growth inhibition administered orally daily for 14 consecutive days measured on day 15; assay type: functional, cell-based
[35] = Selectivity index, ratio of IC50 for human Calu3 cells harboring WT EGFR to IC50 for human HCC827 cells harboring EGFR mutant

SMILES: C=CC(=O)Nc1cc(Nc2nccc(-c3cn(C)c4cccnc34)n2)c(OC)cc1N1CCN(C)CC1
- GI50 (NCI-H1975 [1]): 175 nM
- GI50 at 72 h [2]: 1560 nM
- RatioGI50 [3]: 8.9

SMILES: C=CC(=O)Nc1cc(Nc2nccc(-c3noc4ccccc34)n2)c(OC)cc1N1CCN(C)CC1
- GI50 (NCI-H1975 [1]): 168 nM
- GI50 at 72 h [2]: 728 nM
- RatioGI50 [3]: 4.3

SMILES: C=CC(=O)Nc1cc(Nc2nccc(-c3cn(C)c4cccnc34)n2)c(OC(F)F)cc1N1CCN(C)CC1
- GI50 (NCI-H1975 [1]): 166 nM
- GI50 at 72 h [2]: 1440 nM
- RatioGI50 [3]: 8.7

SMILES: C=CC(=O)Nc1cc(Nc2nccc(-c3cn(C)c4cccnc34)n2)c(OC)cc1NCCN(C)C
- IC50 (Calu-6): > 10000 nM
- IC50 (Calu-3): > 10000 nM
- Ratio IC50 (Homo sapiens): 5.1
- IC50 (NCI-H1975 [1]): 790 nM
- IC50 (A-431): 6780 nM
- IC50 (PC-9 [4]): 740 nM
- Drug metabolism [5]: Metabolite_Detected
- IC50 (HCC827 [6]): 75 nM
- IC50 [7]: 12000 nM
- IC50 [8]: 77000 nM
- IC50 [9]: 15000 nM

SMILES: C=CC(=O)Nc1cc(Nc2nccc(-c3noc4ccccc34)n2)c(OC)cc1N1CCC[C@H]1CN(C)C
- GI50 (NCI-H1975 [1]): 844 nM
- GI50 at 72 h [2]: > 10000 nM
- RatioGI50 [3]: >75.1

SMILES: C=CC(=O)Nc1cc(Nc2nccc(-c3cn(C)c4cccnc34)n2)c(OC)cc1N(C)CCN(C)C
- IC50 (Calu-6): > 10000 nM
- IC50 (Calu-3): > 10000 nM
- inhibition (INH) [10]: Not Active
- Ratio IC50 [11]: 16.5
- inhibition in vivo at 20 mg/kg (NCI-H1975 [12]): 99%
- Ratio IC50 (Homo sapiens): 30
- TGI (PC-9 [13]): Dose-dependent effect
- inhibition in vivo at 10 mg/kg (PC-9 [14]): 104%
- TGI (NCI-H1975 [15]): Dose-dependent effect
- inhibition in vivo at 1 mg/kg (HCC827 [16]): 83%
- GI50 (NCI-H1975 [1]): 6.8 nM
- IC50 (NCI-H1975 [1]): 140 nM
- IC50 (A-431): 3290 nM
- GI50 at 72 h [2]: 500 nM
- inhibition in vivo at 20 mg/kg (PC-9 [17]): 107%
- Ratio IC50 [18]: 71.4
- IC50 (PC-9 [4]): 200 nM
- inhibition (INH) [19]: Not Active
- inhibition in vivo at 5 mg/kg (NCI-H1975 [20]): 48%
- inhibition in vivo at 10 mg/kg (HCC827 [21]): 125%
- IC50 (HCC827 [6]): 15 nM
- inhibition in vivo at 10 mg/kg (NCI-H1975 [22]): 84%
- IC50 [7]: 5500 nM
- IC50 [8]: 63000 nM
- Ratio IC50 [23]: 219.3
- inhibition in vivo at 0.3 mg/kg (HCC827 [24]): 74%
- Ratio IC50 [25]: 23.5
- inhibition in vivo at 2 mg/kg (PC-9 [26]): 67%
- inhibition in vivo at 5 mg/kg (PC-9 [27]): 94%
- Activity [28]: Non-Toxic
- inhibition in vivo at 3 mg/kg (HCC827 [29]): 119%
- IC50 [9]: 2100 nM
- Activity [30]: Non-Toxic
- Activity [31]: Non-Toxic
- inhibition in vivo at 40 mg/kg (NCI-H1975 [32]): 106%
- Ratio IC50 [33]: 50
- TGI (HCC827 [34]): Dose-dependent effect
- Ratio IC50 [35]: 666.7
- RatioGI50 [3]: 73.5

Second part, led by results:

- GI50 (NCI-H1975 [1]): 10.7 nM
SMILES: C=CC(=O)Nc1cc(Nc2nccc(-c3nn(C)c4ccsc34)n2)c(OC)cc1N(C)CCN(C)C
- GI50 at 72 h [2]: 209 nM
- RatioGI50 [3]: 19.5

- GI50 (NCI-H1975 [1]): 6.7 nM
SMILES: C=CC(=O)Nc1cc(Nc2nccc(-c3cn(C)c4cccnc34)n2)c(OC(F)F)cc1N(C)CCN(C)C
- GI50 at 72 h [2]: 296 nM
- RatioGI50 [3]: 44.1

- GI50 (NCI-H1975 [1]): 6.5 nM
SMILES: C=CC(=O)Nc1cc(Nc2nccc(-c3nn(C)c4ccsc34)n2)c(OC(F)F)cc1N(C)CCN(C)C
- GI50 at 72 h [2]: 85.8 nM
- RatioGI50 [3]: 13.2
